In BindingDB's records for doi:10.1021/jm990336n (Boehringer Ingelheim Pharmaceuticals, 2000):

Biological target: T1, Dimer of Gag-Pol polyprotein [489-587] (Human immunodeficiency virus 1, UniProt P12497)
T1 construct: 489-587
Test: Protease Inhibition Assay
Conditions: pH 5.5; 37 °C
Method: Sensitivity of HIV-1 protease activity to protease inhibitors was determined by a peptide substrate cleavage assay. Cleavage products and substrate were separated by reversed-phase HPLC on a Perkin-Elmer 3 X 3CR C8 column.

SMILES	IC50 [nM]
CC(C)(C)NC(=O)[C@@H]1C[C@H](OCc2ccncc2)CCN1C[C@@H](O)[C@H](Cc1ccccc1)NC(=O)O[C@H]1CCOC1 [(3S)-oxolan-3-yl N-[(2S,3R)-4-[(2S,4R)-2-(tert-butylcarbamoyl)-4-(pyridin-4-ylmethoxy)piperidin-1-yl]-3-hydroxy-1-phenylbutan-2-yl]carbamate]	260
CC(C)CN(C[C@@H](O)[C@H](Cc1ccccc1)NC(=O)O[C@H]1CCOC1)S(=O)(=O)c1ccc(N)cc1 [VX-478]	2.6
CC(C)[C@H](NC(=O)c1ccc2ccccc2n1)C(=O)N[C@@H](Cc1ccccc1)[C@H](O)CN1CC[C@@H](OCc2ccncc2)C[C@H]1C(=O)NC(C)(C)C	4
CC(C)(C)NC(=O)[C@@H]1C[C@H](OCc2ccncc2)CCN1C[C@@H](O)[C@H](Cc1ccccc1)NC(=O)CCCc1ccccc1 [(2S,4R)-N-tert-butyl-1-[(2R,3S)-2-hydroxy-4-phenyl-3-(4-phenylbutanamido)butyl]-4-(pyridin-4-ylmethoxy)piperidine-2-carboxamide]	> 20000
